# Data published in patent publication US11560385B2, “Proteasome activity enhancing compounds” (Proteostasis Therapeutics, Inc., priority 2018, dated 2023).
# Target: USP14 (Homo sapiens (Human), UniProt P54578)
# Test: Usp14 inhibition assay (Example 57B, B-series compounds)
# Type: biochemical
# Conditions: IC50 class; average value from a minimum of two experimental determinations
# From the text: Example 57B: Usp14 Inhibition Assay
# The IC50 values in the Table below represent the average value from a minimum of two experimental determinations.
# Sequence of USP14 (P54578 whole entry, looked up): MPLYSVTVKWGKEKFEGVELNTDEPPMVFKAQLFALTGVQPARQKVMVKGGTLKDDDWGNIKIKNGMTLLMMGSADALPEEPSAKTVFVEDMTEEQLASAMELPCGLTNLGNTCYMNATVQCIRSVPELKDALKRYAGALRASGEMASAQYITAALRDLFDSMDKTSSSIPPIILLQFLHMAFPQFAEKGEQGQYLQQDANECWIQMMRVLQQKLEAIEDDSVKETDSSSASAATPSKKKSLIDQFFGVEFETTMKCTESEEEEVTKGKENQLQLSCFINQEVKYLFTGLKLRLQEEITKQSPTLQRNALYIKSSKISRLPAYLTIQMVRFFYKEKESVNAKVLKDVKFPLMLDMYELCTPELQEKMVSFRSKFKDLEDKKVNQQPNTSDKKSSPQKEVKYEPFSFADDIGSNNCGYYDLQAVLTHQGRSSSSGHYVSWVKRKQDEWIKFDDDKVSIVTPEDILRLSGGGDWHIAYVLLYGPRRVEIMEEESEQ
row,Compound,IC50
1,"Cc1nc(Cc2c(Br)c(C(=O)CN3C4CCC3[C@@H](O)C4)c(C)n2-c2ccc(C#N)cc2)cs1 (mixture of isomers) [Example 129B, (±)-4-(3-Bromo-4-(2-((2R)-2-hydroxy-7-azabicyclo[2.2.1]heptan-7-yl)acetyl)-5-methyl-2-((2-methylthiazol-4-yl)methyl)-1H-pyrrol-1-yl)benzonitrile]",50 to 500 nM
2,"Cc1cc(C(=O)CN2[C@H]3CCC[C@@H]2[C@@H](O)C3)c(C)n1-c1ccc(C#N)cc1 (racemic) [Example 83B, (±)-4-(3-(2-((1S,5R,6S)-6-Hydroxy-8-azabicyclo[3.2.1]octan-8-yl)acetyl)-2,5-dimethyl-1H-pyrrol-1-yl)benzonitrile]",50 to 500 nM
3,"Cc1cc(C(=O)CN2C3CCC2[C@@H](O)C3)c(C)n1-c1ccc(C#N)cc1F (mixture of isomers) [Example 91B, (±)-3-Fluoro-4-(3-(2-((2R)-2-hydroxy-7-azabicyclo[2.2.1]heptan-7-yl)acetyl)-2,5-dimethyl-1H-pyrrol-1-yl)benzonitrile]",50 to 500 nM
4,"Cc1c(C(=O)CN2C3CCC2CC3)cc(CCCCS(C)(=O)=O)n1-c1ccc(Cl)cc1 [Example 18B, 2-(7-Azabicyclo[2.2.1]heptan-7-yl)-1-(1-(4-chlorophenyl)-2-methyl-5-(4-(methylsulfonyl)butyl)-1H-pyrrol-3-yl)ethan-1-one]",50 to 500 nM
5,"Cc1c(C(=O)CN2C3CCC2[C@@H](O)C3)cc(CC2COC2)n1-c1ccc(C#N)cc1 (mixture of isomers) [Example 39B, (±)-4-(3-(2-((2R)-2-Hydroxy-7-azabicyclo[2.2.1]heptan-7-yl)acetyl)-2-methyl-5-(oxetan-3-ylmethyl)-1H-pyrrol-1-yl)benzonitrile]",< 50 nM
6,"Cc1c(C(=O)CN2C3CCC2[C@@H](O)C3)cc(COCCC#N)n1-c1ccc(C#N)cc1 (mixture of isomers) [Example 5B, (±)-4-(5-((2-Cyanoethoxy)methyl)-3-(2-((2R)-2-hydroxy-7-azabicyclo[2.2.1]heptan-7-yl)acetyl)-2-methyl-1H-pyrrol-1-yl)benzonitrile]",> 500 nM
7,"Cc1cc(C(=O)CN2[C@@H]3CC[C@H]2[C@H]2CCO[C@H]23)c(C)n1-c1ccc(C#N)cc1 (racemic) [Example 139B, (±)-4-(2,5-Dimethyl-3-(2-((3aR,4S,7R,7aR)-octahydro-4,7-epiminobenzofuran-8-yl)acetyl)-1H-pyrrol-1-yl)benzonitrile]",> 500 nM
8,"Cc1c(C(=O)CN2C3CCC2[C@@H](O)C3)cc(CCC2COC2)n1-c1ccc(C#N)cc1 (mixture of isomers) [Example 43B, (±)-4-(3-(2-((2R)-2-Hydroxy-7-azabicyclo[2.2.1]heptan-7-yl)acetyl)-2-methyl-5-(2-(oxetan-3-yl)ethyl)-1H-pyrrol-1-yl)benzonitrile]",< 50 nM
9,"Cc1c(C(=O)CN2[C@@H]3CC[C@H]2[C@@H](O)C3)cc(CCCC2CCOCC2)n1-c1ccc(C#N)cc1 (racemic) [Example 2B, (±)-4-(3-(2-((1S,2S,4R)-2-Hydroxy-7-azabicyclo[2.2.1]heptan-7-yl)acetyl)-2-methyl-5-(3-(tetrahydro-2H-pyran-4-yl)propyl)-1H-pyrrol-1-yl)benzonitrile]",< 50 nM
10,"Cc1cc(C(=O)CN2[C@@H]3CC[C@H]2[C@@H](OC(F)(F)F)C3)c(C)n1-c1ccc(C#N)cc1 (racemic) [Example 105B, (±)-4-(2,5-Dimethyl-3-(2-((1R,2R,4S)-2-(trifluoromethoxy)-7-azabicyclo[2.2.1]heptan-7-yl)acetyl)-1H-pyrrol-1-yl)benzonitrile]",> 500 nM
11,"Cc1c(C(=O)CN2[C@@H]3CC[C@@H]2[C@@H](O)C3)cc(CC2CCOCC2)n1-c1ccc(C#N)cc1 (racemic) [Example 44B, (±)-4-(3-(2-((1R,2S,4R)-2-Hydroxy-7-azabicyclo[2.2.1]heptan-7-yl)acetyl)-2-methyl-5-((tetrahydro-2H-pyran-4-yl)methyl)-1H-pyrrol-1-yl)benzonitrile]",< 50 nM
12,"Cc1c(C(=O)CN2C3CCC2[C@@H](O)C3)c(Cl)c(Cl)n1-c1ccc(C#N)cc1 (mixture of isomers) [Example 97B, (±)-4-(2,3-Dichloro-4-(2-((2R)-2-hydroxy-7-azabicyclo[2.2.1]heptan-7-yl)acetyl)-5-methyl-1H-pyrrol-1-yl)benzonitrile]",50 to 500 nM
13,"Cc1c(C#N)c(C(=O)CN2C3CCC2[C@@H](O)C3)c(C)n1-c1ccc(C#N)cc1 (mixture of isomers) [Example 33B, (±)-1-(4-Cyanophenyl)-4-(2-((2R)-2-hydroxy-7-azabicyclo[2.2.1]heptan-7-yl)acetyl)-2,5-dimethyl-1H-pyrrole-3-carbonitrile]",> 500 nM
14,"Cc1c(C(=O)CN2C3CCC2[C@@H](O)C3)cc(Br)n1-c1ccc(C#N)cc1 (mixture of isomers) [Example 119B, (±)-4-(5-Bromo-3-(2-((2R)-2-hydroxy-7-azabicyclo[2.2.1]heptan-7-yl)acetyl)-2-methyl-1H-pyrrol-1-yl)benzonitrile]",50 to 500 nM
15,"Cc1cc(C(=O)CN2C3CC4CC2CC(O)(C4)C3)c(C)n1-c1ccc(C#N)cc1 [Example 81B, 4-(3-(2-((5s,7s)-5-Hydroxy-2-azaadamantan-2-yl)acetyl)-2,5-dimethyl-1H-pyrrol-1-yl)benzonitrile]",50 to 500 nM
16,"Cc1cc(C(=O)CN2C3CCCC2CC(O)C3)c(C)n1-c1ccc(C#N)cc1 [Example 86B, 4-(3-(2-((1R,3r,5S)-3-Hydroxy-9-azabicyclo[3.3.1]nonan-9-yl)acetyl)-2,5-dimethyl-1H-pyrrol-1-yl)benzonitrile]",50 to 500 nM
17,"COCCCCc1cc(C(=O)CN2[C@@H]3CC[C@H]2[C@@H](O)C3)c(C)n1-c1ccc(C#N)cc1 (stereo in doubt) [Example 12B, (rel)-4-(3-(2-((1R,2R,4S)-2-Hydroxy-7-azabicyclo[2.2.1]heptan-7-yl)acetyl)-5-(4-methoxybutyl)-2-methyl-1H-pyrrol-1-yl)benzonitrile]",< 50 nM
18,"Cc1c(C(=O)CN2C3CCC2[C@@H](O)C3)c(Cl)c(/C=C/CC(C)(C)C#N)n1-c1ccc(C#N)cc1 (mixture of isomers) [Example 46B, (±)-4-(3-Chloro-2-((E)-4-cyano-4-methylpent-1-en-1-yl)-4-(2-((2R)-2-hydroxy-7-azabicyclo[2.2.1]heptan-7-yl)acetyl)-5-methyl-1H-pyrrol-1-yl)benzonitrile]",50 to 500 nM
19,"CSCCCCCc1cc(C(=O)CN2[C@@H]3CC[C@H]2[C@@H](O)C3)c(C)n1-c1ccc(C#N)cc1 (racemic) [Example 38B, (±)-4-(3-(2-((1R,2R,4S)-2-Hydroxy-7-azabicyclo[2.2.1]heptan-7-yl)acetyl)-2-methyl-5-(5-(methylthio)pentyl)-1H-pyrrol-1-yl)benzonitrile]",< 50 nM
20,"Cc1cc(C(=O)CN2C3CC4CC2CC(C3)O4)c(C)n1-c1ccc(C#N)cc1 [Example 84B, 4-(3-(2-((1r,3r)-2-Oxa-6-azaadamantan-6-yl)acetyl)-2,5-dimethyl-1H-pyrrol-1-yl)benzonitrile]",50 to 500 nM
21,"Cc1c(C(=O)CN2C3CCC2[C@@H](O)C3)cc(C(C)(C)C)n1-c1ccc(C#N)cc1 (mixture of isomers) [Example 113B, (±)-4-(5-(tert-Butyl)-3-(2-((2R)-2-hydroxy-7-azabicyclo[2.2.1]heptan-7-yl)acetyl)-2-methyl-1H-pyrrol-1-yl)benzonitrile]",50 to 500 nM
